Laboratory results published in PMC5442318, “Hundreds of dual-stage antimalarial molecules discovered by a functional gametocyte screen” (Nature Communications, 2017).
Where two headings read alike, the source gives them in different places.

Assays:
[1] = test system: P. falciparum stage V female gametocytes; assay: P. falciparum female gametocyte activation assay (Pf FGAA), 24 h or 48 h preincubation, Pfs25 expression readout; assay type: cell-based, Plasmodium falciparum NF54; conditions: mean, read-out: Gametocytes mean Pf FGAA IC50
Method in brief: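 Female activation, triggered by xanthurenic acid and cooling, was scored by imaging Cy3-labelled anti-Pfs25 female gametes after 24 h at 26 °C. Beforehand, purified NF54 stage V gametocytes had been incubated with compound for either 24 h or 48 h (37 °C, 3% O2). Values are pIC50 from full-curve regression.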

[2] = test system: P. falciparum stages IV–V gametocytes; assay: Gametocytocidal ATP-depletion assay (gametocyte ATP bioluminescence); assay type: cell-based, Plasmodium falciparum
Method in brief: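 Read-out is luciferase luminescence of parasite ATP (BacTiter-Glo), standing in for viability. Double-purified mature stage IV–V gametocytes, 12,500 per well, were exposed 48 h at 37 °C in low-O2 gas; screening concentration 2 μM.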

HepG2 cells = assay: HepG2 cytotoxicity assay; assay type: cell-based; conditions: mean
Method in brief: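 Once incubation ended, the HepG2 plates were warmed to room temperature for 30 min alongside the CellTiter-Glo reagent. Luminescent signal was developed by reagent addition and stabilized for 10 min before plate reading.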

[3] = test system: P. falciparum asexual blood stages; conditions: read-out: Pf Asexual blood stages XC50, cited from earlier work
[4] = P. falciparum female gametocytes
[5] = TCAMS asexual blood stage data, ref 1 (Gamo, F. J. et al., Nature 465, 305-310, 2010)

SMILES	IC50 [1, 4] [nM]	Gametocytes mean ATP inhibition at 2µM [2] [%]	HepG2 cells mean TOX50 (HepG2 cells; HepG2 cells) [µM]	IC50 [3, 5] [nM]	IC50 [1] [nM]	Gametocytes mean ATP inhibition at 2µM (%) [2] [%]	HepG2 cells mean TOX50 (HepG2 cells) [µM]	IC50 ([3]; TCAMS data, ref 1 (Gamo et al., 2010)) [nM]
O=C(O)C(F)(F)F.c1cc(CN2CCC(CCN3CCCCC3)CC2)cc(-c2csc(-c3nc4ccccc4[nH]3)c2)c1 [TCMDC-133919]	2110	3.61	6.04	140	–	–	–	–
Fc1ccc2[nH]c(-c3ccc(-c4ccc(CN5CCC(CCN6CCCCC6)CC5)cc4)cc3)nc2c1.O=C(O)C(F)(F)F [TCMDC-133924]	1700	11.89	3.94	130	–	–	–	–
Fc1ccc2[nH]c(-c3cccc(-c4ccc(CN5CCC(CCN6CCCCC6)CC5)cc4)c3)nc2c1.O=C(O)C(F)(F)F [TCMDC-133940]	1880	-4.48	4.79	140	–	–	–	–
FC(F)(F)c1ccc2[nH]c(-c3ccc(-c4cccc(CN5CCC(CCN6CCCCC6)CC5)c4)cc3)nc2c1.O=C(O)C(F)(F)F [TCMDC-133941]	1260	-7.71	4.45	150	–	–	–	–
Cn1c(Nc2cc(C(C)(C)C)on2)nc2cc(Nc3ccnc(Nc4cccc(S(=O)(=O)N5CCOCC5)c4)n3)ccc21 [TCMDC-134098]	1190	17.18	8.13	530	–	–	–	–
Cc1cc(Nc2ncc(C#N)c(Nc3ccccc3C(N)=O)n2)ccc1N1CCN(C)CC1.Cl [TCMDC-134115]	1670	20.18	0.40	9	–	–	–	–
Cc1n[nH]c2ccc(-c3ccc4nccc(N5CCC(N)CC5)c4c3)cc12.Cl [TCMDC-134315]	2450	71.38	6.88	590	–	–	–	–
CC(C)c1ccc(CN2CCC(CNC(=O)c3cc(-c4cccc(C(F)(F)F)c4)cs3)C2)cc1.O=C(O)C(F)(F)F (stereo not drawn) [TCMDC-134435]	1300	-4.54	5.13	910	–	–	–	–
CC(C)c1ccc(CN2CCC(CNC(=O)c3cc(-c4ccccc4F)cs3)C2)cc1.O=C(O)C(F)(F)F (stereo not drawn) [TCMDC-134436]	1080	-11.71	9.14	990	–	–	–	–
CC(C)c1ccc(CN2CCC(CNC(=O)c3cc(-c4cccc(F)c4)cs3)C2)cc1.O=C(O)C(F)(F)F (stereo not drawn) [TCMDC-134437]	1370	7.50	6.24	1660	–	–	–	–
CC(C)c1ccc(CN2CCC(CNC(=O)c3cc(-c4cccc(Cl)c4)cs3)C2)cc1.O=C(O)C(F)(F)F (stereo not drawn) [TCMDC-134438]	600	-9.36	6.53	750	–	–	–	–
CC(C)c1ccc(CN2CCC(CNC(=O)c3cc(-c4ccc(N(C)C)cc4)cs3)C2)cc1.O=C(O)C(F)(F)F (stereo not drawn) [TCMDC-134440]	710	-6.60	5.85	1250	–	–	–	–
CC(C)(C)c1ccc(CN2CCC(CNC(=O)c3cc(-c4ccccc4C(F)(F)F)cs3)C2)cc1.O=C(O)C(F)(F)F (stereo not drawn) [TCMDC-134441]	690	-17.21	9.77	1240	–	–	–	–
CC(C)(C)c1ccc(CN2CCC(CNC(=O)c3cc(-c4cccc(C(F)(F)F)c4)cs3)C2)cc1.O=C(O)C(F)(F)F (stereo not drawn) [TCMDC-134442]	950	-16.04	6.39	1030	–	–	–	–
CC(C)(C)c1ccc(CN2CCC(CNC(=O)c3cc(-c4ccccc4F)cs3)C2)cc1.O=C(O)C(F)(F)F (stereo not drawn) [TCMDC-134443]	830	-4.04	9.30	560	–	–	–	–
CC(C)(C)c1ccc(CN2CCC(CNC(=O)c3cc(-c4cccc(F)c4)cs3)C2)cc1.O=C(O)C(F)(F)F (stereo not drawn) [TCMDC-134444]	1320	0.99	6.61	900	–	–	–	–
CC(C)(C)c1ccc(CN2CCC(CNC(=O)c3cc(-c4ccccc4Cl)cs3)C2)cc1.O=C(O)C(F)(F)F (stereo not drawn) [TCMDC-134445]	1010	-16.96	6.17	860	–	–	–	–
CC(C)(C)c1ccc(CN2CCC(CNC(=O)c3cc(-c4cccc(Cl)c4)cs3)C2)cc1.O=C(O)C(F)(F)F (stereo not drawn) [TCMDC-134446]	990	-13.17	7.42	1160	–	–	–	–

SMILES	IC50 [1, 4] [nM]	Gametocytes mean ATP inhibition at 2µM [2] [%]	HepG2 cells mean TOX50 (HepG2 cells; HepG2 cells) [µM]	IC50 [3, 5] [nM]	IC50 [1] [nM]	Gametocytes mean ATP inhibition at 2µM (%) [2] [%]	HepG2 cells mean TOX50 (HepG2 cells) [µM]	IC50 ([3]; TCAMS data, ref 1 (Gamo et al., 2010)) [nM]
COc1cccc(-c2csc(C(=O)NCC3CCN(Cc4ccc(C(C)(C)C)cc4)C3)c2)c1.O=C(O)C(F)(F)F (stereo not drawn) [TCMDC-134447]	650	-7.16	5.78	1180	–	–	–	–
CCc1ccccc1-c1csc(C(=O)NCC2CCN(Cc3ccc(C(C)(C)C)cc3)C2)c1.O=C(O)C(F)(F)F (stereo not drawn) [TCMDC-134448]	1200	-14.62	7.67	1150	–	–	–	–
CN(C)c1ccc(-c2csc(C(=O)NCC3CCN(Cc4ccc(C(C)(C)C)cc4)C3)c2)cc1.O=C(O)C(F)(F)F (stereo not drawn) [TCMDC-134449]	600	-20.17	7.24	990	–	–	–	–
NCCCCNc1cc(-c2ccnc(Nc3cccc(Cl)c3)n2)ccn1 [TCMDC-134683]	1460	-0.61	0.67	280	–	–	–	–
COc1cccc(OC)c1CN1CCC(N(C)CCCCCCCCN2CCC(OC(=O)Nc3ccccc3-c3ccccc3)CC2)CC1 [TCMDC-134684]	2260	22.14	1.93	460	–	–	–	–
COc1cccc(OC)c1CN1CCC(N(C)CCCCCCCCCN2CCC(OC(=O)Nc3ccccc3-c3ccccc3)CC2)CC1 [TCMDC-134690]	1310	15.06	1.91	320	–	–	–	–
Cc1cccc(Nc2nc(N[C@@H]3CCCNC3)nc3cc[nH]c(=O)c23)c1.O=C(O)C(F)(F)F [TCMDC-134835]	1850	-27.53	3.25	680	–	–	–	–
NCCCNc1nc(Nc2ccc(C(F)(F)F)cc2F)c2c(=O)[nH]ccc2n1.O=C(O)C(F)(F)F [TCMDC-135056]	1600	-14.04	9.30	1050	–	–	–	–
Fc1ccc(OC2CN(c3nccc(NCc4ccccc4Cl)n3)C2)cc1 [TCMDC-135110]	5220	44.31	83.45	900	–	–	–	–
COc1ccccc1CNc1ccnc(N2CC(Oc3ccc(F)cc3)C2)n1 [TCMDC-135118]	4070	42.55	73.68	850	–	–	–	–
CCn1c(Sc2ccc([N+](=O)[O-])c(C#N)c2)nnc1-c1cccc(Cl)c1 [TCMDC-135234]	1340	46.72	18.80	870	–	–	–	–
Cc1occc1C(=O)Nc1nc(-c2ccccn2)nc2ccsc12 [TCMDC-135244]	60	87.21	>100	900	–	–	–	–
CCn1c(-c2nonc2N)nc2c(-c3cc4ccccc4s3)ncc(C(=O)N3CCC(N)C3)c21.O=C(O)C(F)(F)F (stereo not drawn) [TCMDC-135281]	450	66.75	1.00	870	–	–	–	–
Cc1[nH]c(C)c(-c2ccc(CCc3ccc(F)cc3F)cc2)c(=O)c1Cl [TCMDC-135462]	13300	51.34	>100	16	–	–	–	–
CNCCNc1nccc(N2CCc3ncnc(Nc4ccc(OCc5cccc(F)c5)c(Cl)c4)c3C2)n1 [TCMDC-135478]	1670	-9.54	5.62	200	–	–	–	–
CC(C)N1CCN(C(CN2CCN(CCCOc3ccc(-c4ccccc4)cc3)CC2)c2ccc(F)cc2)CC1.Cl (stereo not drawn) [TCMDC-135497]	1420	6.50	2.29	680	–	–	–	–
COc1ccc(-c2cnc3[nH]cc(-c4ccncc4)c3c2)cc1OC [TCMDC-135853]	2260	76.41	11.79	130	–	–	–	–
COc1ccc2ccccc2c1CCCCN1CCN(CC(c2ccc(F)cc2)N2CCC2)CC1.O=C(O)C(F)(F)F (stereo not drawn) [TCMDC-135867]	–	–	–	–	5860	-0.41	4.37	760
